In PubChem BioAssay AID179 (DTP/NCI, 2004):
Several values for one entry are separate records, joined by “and”; a condition that tells them apart may be missing. Equal values may be shown once. Activity calls are given as the source filed them.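 Rule for the calls: active = compounds giving half or more protection of infected cells from virus-caused growth loss, again on retest; inactive = the rest.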

Tested on: CEM cells HIV-1 protection, formazan growth assay
Test: NCI AIDS Antiviral Assay
Conditions: for IC50: measured here: growth of uninfected CEM cells
Summary of the method: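 Category rules: moderately active means at least 50% protection on retest, and confirmed active means 100% protection reproducibly. The underlying data came from a formazan growth assay in HIV-1-infected CEM cells.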

| Compound | EC50 [µM] | IC50 | outcome |
| --- | --- | --- | --- |
| CC(C)NCCCC(C)Nc1ccnc2ccc3nn(C)nc3c12 (configuration not stated) | > 240 | 53.7 µM | – |
| CCCC(=O)OCC1OC2OC(C)(C)OC2C2OC(C)(C)OC12 (configuration not stated) | – | – | inactive |
| CCOc1cc(C2SCC(=O)N2c2ccc(Oc3ccc(Cl)cc3)c(Cl)c2)ccc1O (configuration not stated) | > 200 | 27.5 µM | – |
| COc1ccc(C(c2cc3c(cc2O)OCO3)N2CCOCC2)c(OC)c1 (configuration not stated) | > 95.5 | 7.94 µM | – |
| Cc1ccc(-n2cc([Si](C)(C)C)nn2)s1 | > 200 | 123 µM | – |
| CC(C)C1=CC2=CCC3C(C)(CN)CCCC3(C)C2CC1CCN (configuration not stated) | > 100 | 1.48 µM | – |
| O=C(O)CN1CCN2CCCCCN(CC1)CCN(CC(=O)O)CC2 | > 200 | 12.6 µM | – |
| CC(C(=O)c1ccccc1)C1(O)C(=O)Nc2ccccc21 (configuration not stated) | – | – | inactive |
| NNC1=N/C(=C\c2ccccc2O)C(=O)N1 | > 200 | 35.5 µM | – |
| Cc1ccc(S(=O)(=O)/N=C2/N(C)CCCS2(=O)=O)cc1 | > 200 | > 200 µM | – |
| Cc1nc2ccncc2[nH]1 | > 269 | 191 µM | – |
| O=C1NC(=O)C(=Cn2c(=S)sc3ccccc32)C(=O)N1 | > 200 | > 200 µM | – |
| CC(C)[C@@]12O[C@@H]1CC13OC1[C@@H](O)CC[C@@]32O (some centres not stated) | > 200 | > 200 µM | – |
| COC(=O)C1CCN(C(=O)OC(C)(C)C)CC1 | > 200 | > 200 µM | – |
| CC(=O)OC1C=CN(C(C)=O)C(SC(C)(C)C)C1(C)O (configuration not stated) | > 200 | > 200 µM | – |
| O=C(O)C(CS)Nc1c2ccccc2nc2ccccc12 (configuration not stated) | – | – | inactive |
| O=c1oc2c(O)c(O)cc3c(=O)oc4c(O)c(O)cc1c4c23 | > 66.1 | 42.7 µM | – |
| N#C[C@H](C(=O)c1ccccc1F)c1nc2ccccc2[nH]1 | 170 | > 200 µM | – |
| O=S(=O)(CC(Cl)c1ccccc1)c1nc2ccccc2s1 (configuration not stated) | > 200 | 2.14 µM | – |
| COC(Cc1cc(C(O)(c2ccc(C(C)(C)C)cc2)c2cc(CC(OC)(c3cc(C(OC)(c4ccc(C(C)(C)C)cc4)c4ccc(C(C)(C)C)cc4)c(C)cc3C)c3cc(C(OC)(c4ccc(C(C)(C)C)cc4)c4ccc(C(C)(C)C)cc4)c(C)cc3C)c(C)cc2C)c(C)cc1C)(c1cc(C(OC)(c2ccc(C(C)(C)C)cc2)c2ccc(C(C)(C)C)cc2)c(C)cc1C)c1cc(C(OC)(c2ccc(C(C)(C)C)cc2)c2ccc(C(C)(C)C)cc2)c(C)cc1C | – | – | inactive |
| O=C(Nc1ccc(C2=NC3CCCCC3N2)cc1)c1ccc(C(=O)Nc2ccc(C3=NC4CCCCC4N3)cc2)cc1 (configuration not stated) | > 200 | 9.33 µM | – |

| Compound | EC50 [µM] | IC50 | outcome |
| --- | --- | --- | --- |
| O=C(O)c1nc(-c2ccc(Cl)c(Cl)c2)nc2ccc(Cl)cc12 | – | – | inactive |
| Oc1cc(CN2CCOCCOCCOCCOCC2)c(O)cc1CN1CCOCCOCCOCCOCC1 | > 437 | 13.2 µM | – |
| O=C(CCCN1CCC(C(O)c2ccc(F)cc2)CC1)c1ccc(F)cc1 (configuration not stated) | > 95.5 | 79.4 µM | – |
| C[N+]1=C(c2cccnc2/C=N/O)OCC1(C)C | > 692 | 417 µM | – |
| CCCCCCCCCCNCCSSCc1ccc(Cl)cc1 | – | – | inactive |
| COc1ccc2nc3cc(Cl)ccc3c(Nc3ccc(S(=O)(=O)Nc4nccs4)cc3)c2c1 | > 9.77 | > 9.77 µM | – |
| Nc1nncs1 | > 1780 | 871 µM | – |
| O=c1[nH]c2nccnc2c2c([N+](=O)[O-])cccc12 | > 200 | > 200 µM | – |
| c1ccc(C2=NN3CN(N2)c2ccccc2OCCCOc2ccccc23)cc1 | > 200 | 105 µM | – |
| CN(C)C(=N)CSS(=O)(=O)O | 120 | 182 µM | – |
| Oc1ccc(Nc2nc(Cl)c3[nH]cnc3n2)cc1 | > 200 | 107 µM | – |
| Cc1ccccc1NP1(=O)OCCCN1Cc1ccc(Cl)c(Cl)c1 (configuration not stated) | – | – | inactive |
| COC(=O)/N=[N+](\[O-])C(c1ccc(OC)cc1)C1CCCCC1 (configuration not stated) | > 200 | 5.62 µM | – |
| COC(=O)CC12C=CC3(OO1)C(C)(C)CCCC3(C)O2 (configuration not stated) | > 200 | 174 µM | – |
| CNC(SC)=C1C(=O)OC(C)(C)OC1=O | > 1070 | 457 µM | – |
| Cc1ccc(Cc2n[nH]c(=O)n2N2C(=O)c3ccccc3C2=O)cc1 | > 200 | > 200 µM | – |
| Brc1ccccc1C1SCc2nc3ncccc3n21 (configuration not stated) | > 77.6 | > 77.6 µM | – |
| O=P(Nc1cccc(Cl)c1)(Oc1ccccc1)N(CCCl)CCCl (configuration not stated) | > 17.8 | 6.46 µM | – |
| CCc1ccc(NCc2cc(OC)c(OC)c(OC)c2)cc1 | > 166 | 0.372 µM and 0.151 µM | – |
| c1ccc(C(c2ccccc2)[P+](c2ccccc2)(c2ccccc2)c2ccccc2)cc1 | > 20 | 0.372 µM | – |
| CCOC(=O)C1C(c2ccc(Cl)cc2Cl)NC(c2ccc(C)cc2)C(C(=O)OC)S1(=O)=O (configuration not stated) | > 14.5 | > 14.5 µM | – |
